Measurements reported in PubChem BioAssay AID1963422 (Molecular Pharmacology Branch, DTP, NCI, 2024).
Each block holds one compound with its values, some of them ahead of it.

System: 463943-066-T-J2-PDC complex spheroid growth
Experiment: Anticancer human tumor 463943-066-T-J2-PDC patient-derived colon adenocarcinoma cell line growth inhibition [Asc]
Settings: for IC50: curve of first compound; for viability, T/C: stronger effect = lower value
Method in brief: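 Complex solid-tumor spheroids incorporating human endothelial and mesenchymal stem cells received single agents or combinations over half-log dilution ranges anchored to clinical Cmax.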

[1] = second compound 0.0316 µM, first compound 0.00949 µM
[2] = second compound 0.0316 µM, first compound 0.03 µM
[3] = second compound 0.0316 µM, first compound 0.0949 µM
[4] = second compound 0.0316 µM, first compound 0.3 µM
[5] = second compound 0.0316 µM, first compound 0.949 µM
[6] = second compound 0.0316 µM, first compound 3 µM
[7] = second compound 0.1 µM, first compound 0.00949 µM
[8] = second compound 0.1 µM, first compound 0.03 µM
[9] = second compound 0.1 µM, first compound 0.0949 µM
[10] = second compound 0.1 µM, first compound 0.3 µM
[11] = second compound 0.1 µM, first compound 0.949 µM
[12] = second compound 0.1 µM, first compound 3 µM
[13] = second compound 0.316 µM, first compound 0.00949 µM
[14] = second compound 0.316 µM, first compound 0.03 µM
[15] = second compound 0.316 µM, first compound 0.0949 µM
[16] = second compound 0.316 µM, first compound 0.3 µM
[17] = second compound 0.316 µM, first compound 0.949 µM
[18] = second compound 0.316 µM, first compound 3 µM
[19] = second compound 1 µM, first compound 0.00949 µM
[20] = second compound 1 µM, first compound 0.03 µM
[21] = second compound 1 µM, first compound 0.0949 µM
[22] = second compound 1 µM, first compound 0.3 µM
[23] = second compound 1 µM, first compound 0.949 µM
[24] = second compound 1 µM, first compound 3 µM
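Also: compound exposure lasted 7 days.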
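For viability, T/C in this document: 100% = DMSO vehicle control wells.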

IC50 (second compound 0.00949 µM): > 3 µM | IC50 (second compound 0.03 µM): > 3 µM | IC50 (second compound 0.0949 µM): > 3 µM | IC50 (second compound 0.3 µM): > 3 µM | IC50 (second compound 0.949 µM): > 3 µM | IC50 (second compound 3 µM): > 3 µM
Compound: Cc1nc(N2CCC3(CC2)COC(C)C3N)c(CO)nc1Sc1ccnc(N)c1Cl (stereo unspecified) + CCN1C(C(=O)NC23CCC(C(=O)O)(CC2)CC3)C(c2cccc(Cl)c2F)C2(C(=O)Nc3cc(Cl)ccc32)C12CCCCC2
viability, T/C (second compound 0.00949 µM, first compound 0.00949 µM): 96.7% | viability, T/C (second compound 0.00949 µM, first compound 0.03 µM): 88% | viability, T/C (second compound 0.00949 µM, first compound 0.0949 µM): 87% | viability, T/C (second compound 0.00949 µM, first compound 0.3 µM): 81.5% | viability, T/C (second compound 0.00949 µM, first compound 0.949 µM): 82.3% | viability, T/C (second compound 0.00949 µM, first compound 3 µM): 63.6% | viability, T/C (second compound 0.03 µM, first compound 0.00949 µM): 91% | viability, T/C (second compound 0.03 µM, first compound 0.03 µM): 91.3% | viability, T/C (second compound 0.03 µM, first compound 0.0949 µM): 81.2% | viability, T/C (second compound 0.03 µM, first compound 0.3 µM): 82.2% | viability, T/C (second compound 0.03 µM, first compound 0.949 µM): 74% | viability, T/C (second compound 0.03 µM, first compound 3 µM): 60% | viability, T/C (second compound 0.0949 µM, first compound 0.00949 µM): 90.1% | viability, T/C (second compound 0.0949 µM, first compound 0.03 µM): 86.8% | viability, T/C (second compound 0.0949 µM, first compound 0.0949 µM): 76.2% | viability, T/C (second compound 0.0949 µM, first compound 0.3 µM): 75.7% | viability, T/C (second compound 0.0949 µM, first compound 0.949 µM): 71.5% | viability, T/C (second compound 0.0949 µM, first compound 3 µM): 61.9% | viability, T/C (second compound 0.3 µM, first compound 0.00949 µM): 82.7% | viability, T/C (second compound 0.3 µM, first compound 0.03 µM): 82.5% | viability, T/C (second compound 0.3 µM, first compound 0.0949 µM): 82.5% | viability, T/C (second compound 0.3 µM, first compound 0.3 µM): 72.2% | viability, T/C (second compound 0.3 µM, first compound 0.949 µM): 64% | viability, T/C (second compound 0.3 µM, first compound 3 µM): 59.1% | viability, T/C (second compound 0.949 µM, first compound 0.00949 µM): 74.3% | viability, T/C (second compound 0.949 µM, first compound 0.03 µM): 72.2% | viability, T/C (second compound 0.949 µM, first compound 0.0949 µM): 62.7% | viability, T/C (second compound 0.949 µM, first compound 0.3 µM): 62.3% | viability, T/C (second compound 0.949 µM, first compound 0.949 µM): 60.3% | viability, T/C (second compound 0.949 µM, first compound 3 µM): 53.2% | viability, T/C (second compound 3 µM, first compound 0.00949 µM): 70.7% | viability, T/C (second compound 3 µM, first compound 0.03 µM): 64.6% | viability, T/C (second compound 3 µM, first compound 0.0949 µM): 64.1% | viability, T/C (second compound 3 µM, first compound 0.3 µM): 63% | viability, T/C (second compound 3 µM, first compound 0.949 µM): 60.6% | viability, T/C (second compound 3 µM, first compound 3 µM): 49.6%

IC50 (second compound 0.00316 µM): > 3 µM | IC50 (second compound 0.01 µM): > 3 µM | IC50 (second compound 0.0316 µM): > 3 µM | IC50 (second compound 0.1 µM): > 3 µM | IC50 (second compound 0.316 µM): > 3 µM | IC50 (second compound 1 µM): > 3 µM
Compound: Cc1nc(N2CCC3(CC2)COC(C)C3N)c(CO)nc1Sc1ccnc(N)c1Cl (stereo unspecified) + CNC(C)C(=O)NC1CN(S(=O)(=O)c2cccc(S(=O)(=O)N3CCC4CCC(C(=O)NC(c5ccccc5)c5ccccc5)N4C(=O)C(NC(=O)C(C)NC)C3)c2)CCC2CCC(C(=O)NC(c3ccccc3)c3ccccc3)N2C1=O
viability, T/C (second compound 0.00316 µM, first compound 0.00949 µM): 106% | viability, T/C (second compound 0.00316 µM, first compound 0.03 µM): 84.2% | viability, T/C (second compound 0.00316 µM, first compound 0.0949 µM): 85.5% | viability, T/C (second compound 0.00316 µM, first compound 0.3 µM): 86.6% | viability, T/C (second compound 0.00316 µM, first compound 0.949 µM): 81% | viability, T/C (second compound 0.00316 µM, first compound 3 µM): 70.3% | viability, T/C (second compound 0.01 µM, first compound 0.00949 µM): 96.2% | viability, T/C (second compound 0.01 µM, first compound 0.03 µM): 95.6% | viability, T/C (second compound 0.01 µM, first compound 0.0949 µM): 83.1% | viability, T/C (second compound 0.01 µM, first compound 0.3 µM): 85.5% | viability, T/C (second compound 0.01 µM, first compound 0.949 µM): 77.1% | viability, T/C (second compound 0.01 µM, first compound 3 µM): 71.8% | viability, T/C [1]: 95.4% | viability, T/C [2]: 94.7% | viability, T/C [3]: 81.3% | viability, T/C [4]: 78.8% | viability, T/C [5]: 77.6% | viability, T/C [6]: 69.1% | viability, T/C [7]: 96.8% | viability, T/C [8]: 87% | viability, T/C [9]: 89.1% | viability, T/C [10]: 88.1% | viability, T/C [11]: 73.2% | viability, T/C [12]: 66.3% | viability, T/C [13]: 92.3% | viability, T/C [14]: 92.5% | viability, T/C [15]: 88.8% | viability, T/C [16]: 83% | viability, T/C [17]: 73.6% | viability, T/C [18]: 66.5% | viability, T/C [19]: 84.1% | viability, T/C [20]: 82.2% | viability, T/C [21]: 82% | viability, T/C [22]: 73.5% | viability, T/C [23]: 69.3% | viability, T/C [24]: 64%

IC50 (second compound 0.0316 µM): > 3 µM | IC50 (second compound 0.1 µM): > 3 µM | IC50 (second compound 0.316 µM): > 3 µM | IC50 (second compound 1 µM): > 3 µM | IC50 (second compound 3.16 µM): 0.185 µM | IC50 (second compound 10 µM): < 0.00949 µM
Compound: Cc1nc(N2CCC3(CC2)COC(C)C3N)c(CO)nc1Sc1ccnc(N)c1Cl (stereo unspecified) + Cc1c(S(C)(=O)=O)c(-c2cc(F)cc(N3CCN(c4ccc(NS(=O)(=O)c5ccc(NC(CCN6CCC(C(=O)OCCCP(=O)(O)O)CC6)CSc6ccccc6)c(S(=O)(=O)C(F)(F)F)c5)cc4)CC3)c2)c(-c2ccc(Cl)cc2)n1C(C)C
viability, T/C [1]: 106% | viability, T/C [2]: 86.8% | viability, T/C [3]: 87.3% | viability, T/C [4]: 87.3% | viability, T/C [5]: 77.8% | viability, T/C [6]: 63.9% | viability, T/C [7]: 93.1% | viability, T/C [8]: 87.2% | viability, T/C [9]: 90.7% | viability, T/C [10]: 82.4% | viability, T/C [11]: 75.1% | viability, T/C [12]: 58.1% | viability, T/C [13]: 84% | viability, T/C [14]: 85.1% | viability, T/C [15]: 78.5% | viability, T/C [16]: 71.1% | viability, T/C [17]: 65.8% | viability, T/C [18]: 52.4% | viability, T/C [19]: 77.2% | viability, T/C [20]: 73.7% | viability, T/C [21]: 66% | viability, T/C [22]: 67.6% | viability, T/C [23]: 64.9% | viability, T/C [24]: 50.7% | viability, T/C (second compound 3.16 µM, first compound 0.00949 µM): 57% | viability, T/C (second compound 3.16 µM, first compound 0.03 µM): 58.5% | viability, T/C (second compound 3.16 µM, first compound 0.0949 µM): 51% | viability, T/C (second compound 3.16 µM, first compound 0.3 µM): 49.2% | viability, T/C (second compound 3.16 µM, first compound 0.949 µM): 41.4% | viability, T/C (second compound 3.16 µM, first compound 3 µM): 36.5% | viability, T/C (second compound 10 µM, first compound 0.00949 µM): 48.7% | viability, T/C (second compound 10 µM, first compound 0.03 µM): 44.8% | viability, T/C (second compound 10 µM, first compound 0.0949 µM): 41.4% | viability, T/C (second compound 10 µM, first compound 0.3 µM): 39.4% | viability, T/C (second compound 10 µM, first compound 0.949 µM): 35.9% | viability, T/C (second compound 10 µM, first compound 3 µM): 27.6%
